According to patent US20150051191A1, “TREATMENT OF ALCOHOLISM USING IBUDILAST” (MEDICINOVA, INC., priority 2013, published 2015):
Blank lines part the entries; values can stand above or below the molecule they belong to.

Experiments:
[1] = tested on: alcohol-preferring (P) rats; assay: voluntary ethanol consumption in alcohol-preferring (P) rats; type: in vivo, rat; settings: for ethanol drinking relative to controls: Relapse Test phase, p<0.05
Procedure: (§1) The ability of ibudilast (MN-166) to decrease voluntary ethanol consumption, under blind testing conditions, in selectively-bred alcohol-preferring (P) and high-alcohol-drinking (HAD1) rats and in a mouse model of ethanol dependence was examined.
(§2) To perform the study, adult male P and HAD1 rats were randomly assigned to receive one of the following four doses of ibudilast—0 mg/Kg, 3 mg/Kg, 6 mg/Kg, or 9 mg/Kg with eight rats assigned to each dose. Each dosing group was balanced to average a 2 h/day ethanol (15% v/v) intake. Water was concurrently available to the rats and Mazola corn oil was used as the vehicle.
(§3) The study was divided into four test phases. In the maintenance test phase rats in the treatment group were injected ibudilast subcutaneously (2 mL/kg s.c.), using standard solutions that deliver 3 mg/Kg, 6 mg/Kg or 9 mg/Kg of ibudilast, 60 min before each ethanol test session and the same dose of ibudilast was administered subcutaneously to the rats 8 hours later. Rats in the control group, however, are administered 2 mL/Kg Mazola corn oil subcutaneously. This protocol was carried out for 4 consecutive days. Following the maintenance test phase, is a two week no drug recovery phase during which rats are permitted access to ethanol and the amount of ethanol consumed by the rats was measured.
(§4) The recovery phase is followed by a two week forced ethanol abstinence phase. Following forced abstinence, the effects of ibudilast on ethanol drinking were examined by re-introducing ethanol to rats for a period of 5 consecutive days (i.e., the Relapse Test phase). Each animal received the same dose of ibudilast during maintenance and relapse test phases.

[2] = tested on: high-alcohol-drinking (HAD1) rats; assay: voluntary ethanol consumption in high-alcohol-drinking (HAD1) rats; type: in vivo, rat
Procedure: as §1, §2, §3, §4

[3] = tested on: C57BL/6J mice; assay: mouse model of ethanol dependence, chronic intermittent ethanol (CIE) exposure; type: in vivo; settings: for ethanol intake of alcohol dependent mice compared with control group counterparts / reduction of ethanol intake, alcohol dependent versus control mice: Test Cycle 9; for ethanol consumption relative to vehicle: Test Cycle 8
Procedure: Briefly, mice were divided into test (ethanol dependent) and control (non-ethanol dependent) groups. Mice in the former group were exposed to chronic intermittent ethanol (CIE) vapor (16 hr/day×4 days), and then forced to abstain from alcohol for 72 hours. Mice were then permitted access to ethanol for 2 h/day for a 5-day test period. This pattern of weekly CIE exposures followed by 5-day test periods was repeated for 9 cycles. Mice in the control group were treated in the same manner, except these animals were exposed to air rather than ethanol vapors. Mice from both groups were further divided into four sub-groups with animals receiving 0 mg/Kg, 3 mg/Kg, 6 mg/Kg or 12 mg/Kg dose of ibudilast. In a separate study, adult male C57BL/6J mice were used to evaluate ibudilast as a therapeutic for the treatment of alcohol dependence. Two groups of mice were used for the study. Mice in the first group were trained to drink ethanol using a 2 h/day free-choice (15% v/v ethanol) drinking procedure (ethanol dependent (EtOH) mice), while mice in the second group were provided water and served a control (ethanol nondependent (CTL)) mice. Both the ethanol dependent and ethanol non-dependent groups had equal number of mice (N=37-38/group). Mice in the alcohol dependent group were then exposed to chronic intermittent ethanol (CIE) vapors for 16 hr/day over four days. After a 72 hours forced abstinence period, the ethanol dependent mice were again permitted access to ethanol for 2 hours each day over a 5 consecutive test days. This pattern of chronic intermittent ethanol vapor exposure for four consecutive days followed by forced abstinence and a five day ethanol access test period was repeated for 9 cycles. […] Both control and ethanol dependent mice received subcutaneous (s.c.) injections of the vehicle at 9 hours and 1 hour prior to the start of daily drinking sessions during Test Cycles 4, 5 and 6 to acclimate the animals to handling and administration of injections. At the end of test cycle 6, mice in the ethanol dependent group and the control group were separated into four sub-groups with animals receiving one of four doses of ibudilast—0 mg/Kg, 3 mg/Kg, 6 mg/Kg or 12 mg/Kg during Test Cycles 7 and 8. Each sub-group contained 9-10 mice (N=9-10/group). The dose of ibudilast was increased during Test Cycle 9 with ethanol dependent and control mice receiving one of the following four doses of ibudilast—0 mg/Kg, 6 mg/Kg, 12 mg/Kg, or 18 mg/Kg. Thus, mice previously receiving a dose of 3 mg were administered ibudilast at a dose of 18 mg/Kg during Test Cycle 9.

[4] = in vivo; cited from earlier work
[5] = 4-day maintenance test-phase, each dose (3, 6, 9 mg/Kg), p<=0.001
[6] = 5-day Relapse Test phase after two week forced abstinence
[7] = especially at the 9 mg/Kg dose, effect diminished over the 5-day test phase
[8] = maintenance test phase, 4 days, ibudilast s.c. 60 min before session and 8 hours later, 2 h/day ethanol 15% v/v
[9] = relapse test phase, data not shown

24-hour water intake ([1]; especially at the 9 mg/Kg dose): not water intake
24-hour water intake ([2]; especially at the 9 mg/Kg dose): not water intake
Compound: CC(C)C(=O)c1c(C(C)C)nn2ccccc12 [ibudilast, Ibudilast]
ethanol intake relative to vehicle-injected controls [1, 5]: reduced ethanol intake
reduction of ethanol intake [1, 6]: about 50%
ethanol drinking relative to controls ([1]; 6 mg/Kg): significantly reducing ethanol drinking
ethanol drinking relative to controls ([1]; 9 mg/Kg): significantly reducing ethanol drinking
24-hour food intake [1, 7]: transitory reductions in 24-hour food intake
reduction of ethanol intake [1, 8]: approximately 50%
Dose x Day interaction of reduced ethanol intake [1, 9]: most robust on the first day
ethanol intake relative to vehicle-injected controls [2, 5]: reduced ethanol intake
reduction of ethanol intake [2, 6]: about 50%
ethanol intake compared to controls ([2]; Relapse Test phase, each test dose, p<0.05): reduce ethanol intake compared to controls
24-hour food intake [2, 7]: transitory reductions in 24-hour food intake
reduction of ethanol intake [2, 8]: approximately 50%
Dose x Day interaction of reduced ethanol intake [2, 9]: most robust on the first day
ethanol intake of alcohol dependent mice compared with control group counterparts ([3]; 6 mg ibudilast, p<0.05): consumed significantly more ethanol
ethanol intake of alcohol dependent mice compared with control group counterparts ([3]; 12 mg/Kg): no significant difference in ethanol intake
reduction of ethanol intake, alcohol dependent versus control mice ([3]; 12 mg/Kg): more effective at reducing ethanol intake in alcohol dependent mice than control mice
ethanol intake of alcohol dependent mice compared with control group counterparts ([3]; 18 mg/Kg): no significant difference in ethanol intake
reduction of ethanol intake, alcohol dependent versus control mice ([3]; 18 mg/Kg): more effective at reducing ethanol intake in alcohol dependent mice than control mice
ethanol intake ([3]; alcohol dependent mice, 12 mg/Kg s.c., Test Cycle 7 (implied, FIG. 2)): reduced ethanol in alcohol dependent mice
ethanol consumption relative to vehicle ([3]; alcohol dependent mice, 12 mg/Kg, p<0.05): reduced ethanol consumption to a greater extent
ethanol intake of test (ethanol dependent) mice relative to control group levels ([3]; at the higher doses): below those for mice in the control group
ethanol consumption relative to vehicle ([3]; control (CTL) mice, 12 mg/Kg, p<0.05): reduced ethanol consumption to a greater extent

Compound: CC[C@@H](C(N)=O)N1CCCC1=O [levatiracetam]
selective reduction of ethanol drinking [4]: do not selectively reduce ethanol drinking

Compound: OCCOCCN1CCN(C2=Nc3ccccc3Sc3ccccc32)CC1 [quetiapine]
selective reduction of ethanol drinking [4]: do not selectively reduce ethanol drinking
